# Experimental data: patent US11000033B2, “Ketone or oxime compound, and herbicide” (NISSAN CHEMICAL CORPORATION, priority 2014, dated 2021)
# Experiments:
# Format in all cases: in vivo
# [1] = tested on: Setaria viridis; assay: Test Example 5: herbicidal effect by foliage application, plastic box (symbol G); conditions: 320 g/ha, 3 weeks after application
# Outline: (§1)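 Sowing in sterilized diluvial soil, 14 days' greenhouse growth at 25° C. to 30° C., then uniform small-sprayer foliar application of aqueous emulsion dilution; plants scored three weeks afterwards.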
# [2] = tested on: Chenopodium album; assay: Test Example 5: herbicidal effect by foliage application, plastic box (symbol O); conditions: 320 g/ha, 3 weeks after application
# Outline: as §1
# [3] = tested on: Digitaria ciliaris; assay: Test Example 4: herbicidal effect by soil treatment (symbol F)
# Outline: (§2)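 Seeds were sown in sterilized diluvial soil, covered with about 1.5 cm of soil, and the soil surface was sprayed with a water-diluted emulsion of the compound at a predetermined rate. Plants grew in a greenhouse at 25° C. to 30° C.; effects were scored visually 3 weeks after application.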
# [4] = tested on: Avena fatua; assay: Test Example 4: herbicidal effect by soil treatment (symbol I)
# Outline: as §2
# [5] = tested on: rapeseed; assay: Test Example 4: effect on crop by soil treatment (symbol g); conditions: for g: rapeseed, effect on crop grade: application herbicide amount 320 g/ha
# Outline: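 The test used sterilized diluvial soil. Seed was set down in spots and overlaid with about 1.5 cm of soil before growth in a greenhouse kept at 25° C. to 30° C.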
# [6] = tested on: Galium spurium; assay: Test Example 5: herbicidal effect by foliage application, plastic box (symbol Q); conditions: 320 g/ha, 3 weeks after application
# Outline: as §1
# [7] = tested on: Amaranthus retroflexus; assay: Test Example 4: herbicidal effect by soil treatment (symbol N)
# Outline: as §2
# [8] = tested on: Abutilon theophrasti; assay: Test Example 5: herbicidal effect by foliage application, plastic box (symbol M); conditions: 320 g/ha, 3 weeks after application
# Outline: as §1
# [9] = tested on: Alopecurus myosuroides; assay: Test Example 4: herbicidal effect by soil treatment (symbol J)
# Outline: as §2
# [10] = tested on: Digitaria ciliaris; assay: Test Example 5: herbicidal effect by foliage application, plastic box (symbol F); conditions: 320 g/ha, 3 weeks after application
# Outline: as §1
# [11] = tested on: Echinochloa oryzacola Vasing.; assay: Test Example 1: herbicidal activity, application before weed generation in submerged conditions (symbol A); conditions: application herbicide amount 320 g/ha
# Outline: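 Paddy pre-emergence test. Formulated emulsion, water-diluted to a predetermined rate, is applied to floodwater on sowing day; rice transplanted at 2.5 leaves. Effect read at 3 weeks on a 0–5 herbicidal-ratio scale.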
# [12] = tested on: Echinochloa crus-galli var. crus-galli; assay: Test Example 3: herbicidal effect by foliage application, Wagner pot (symbol H); conditions: application herbicide amount 320 g/ha
# Outline: (§3)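 Weeds and rice were sown in alluvial soil under 0.1–0.5 cm of standing water and grown for 14 days in a 25–30 °C greenhouse. An emulsion of the compound, diluted in water to a set dose, was sprayed evenly onto the foliage. Effect was scored against fixed criteria 3 weeks after treatment.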
# [13] = tested on: Setaria viridis; assay: Test Example 4: herbicidal effect by soil treatment (symbol G); conditions: application herbicide amount 320 g/ha
# Outline: as §2
# [14] = tested on: Leptochloa chinensis; assay: Test Example 3: herbicidal effect by foliage application, Wagner pot (symbol D); conditions: application herbicide amount 320 g/ha
# Outline: as §3
# [15] = tested on: Veronica persica; assay: Test Example 4: herbicidal effect by soil treatment (symbol R)
# Outline: as §2
# [16] = tested on: rice plant; assay: Test Example 5: effect on crop by foliage application, plastic box (symbol b); conditions: 320 g/ha, 3 weeks after application
# Outline: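 Seeds were sown in spots in sterilized diluvial soil held in a plastic box 21 cm × 13 cm × 7 cm deep, covered with about 1.5 cm of soil, and grown in a greenhouse at 25° C. to 30° C.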
# [17] = tested on: Apera spica-venti; assay: Test Example 5: herbicidal effect by foliage application, plastic box (symbol L); conditions: 320 g/ha, 3 weeks after application
# Outline: as §1
# [18] = tested on: Lolium multiflorum Lam.; assay: Test Example 5: herbicidal effect by foliage application, plastic box (symbol K); conditions: 320 g/ha, 3 weeks after application
# Outline: as §1
# [19] = tested on: Stellaria media; assay: Test Example 5: herbicidal effect by foliage application, plastic box (symbol P); conditions: 320 g/ha, 3 weeks after application
# Outline: as §1
# [20] = application herbicide amount 320 g/ha
structure (smiles),measurement,setting,value
CC#Cc1cc(C)c(C2=C(O)CC(CC(C)=NOC)C2=O)c(CC)c1 (mixture of isomers) [6-006],"G: Setaria viridis, herbicidal effect grade",[1],3 (Herbicidal ratio of 40% or higher and lower than 70%)
same,"O: Chenopodium album, herbicidal effect grade",[2],0 (Herbicidal ratio of 5% or lower (almost no effect))
same,"F: Digitaria ciliaris, herbicidal effect grade",[3]; [20],5 (Herbicidal ratio of 90% or more (almost completely withered))
same,"I: Avena fatua, herbicidal effect grade",[4]; [20],4 (Herbicidal ratio of 70% or higher and lower than 90%)
same,"g: rapeseed, effect on crop grade",[5],4 (Herbicidal ratio of 70% or higher and lower than 90%)
same,"Q: Galium spurium, herbicidal effect grade",[6],0 (Herbicidal ratio of 5% or lower (almost no effect))
same,"N: Amaranthus retroflexus, herbicidal effect grade",[7]; [20],3 (Herbicidal ratio of 40% or higher and lower than 70%)
same,"M: Abutilon theophrasti, herbicidal effect grade",[8],0 (Herbicidal ratio of 5% or lower (almost no effect))
same,"J: Alopecurus myosuroides, herbicidal effect grade",[9]; [20],5 (Herbicidal ratio of 90% or more (almost completely withered))
same,"F: Digitaria ciliaris, herbicidal effect grade",[10],3 (Herbicidal ratio of 40% or higher and lower than 70%)
same,"Herbicidal effect grade, A: Echinochloa oryzacola Vasing.",[11],5 (Herbicidal ratio of 90% or more (almost completely withered))
same,"herbicidal effect on H (Echinochloa crus-galli var. crus-galli), grade 0-5",[12],5 (Herbicidal ratio of 90% or more (almost completely withered))
same,"G: Setaria viridis, herbicidal effect grade",[13],5 (Herbicidal ratio of 90% or more (almost completely withered))
same,"herbicidal effect on D (Leptochloa chinensis), grade 0-5",[14],5 (Herbicidal ratio of 90% or more (almost completely withered))
same,"R: Veronica persica, herbicidal effect grade",[15]; [20],2 (Herbicidal ratio of 20% or higher and lower than 40%)
same,"b: directly sowed rice plant, effect on crop grade",[16],4 (Herbicidal ratio of 70% or higher and lower than 90%)
same,"L: Apera spica-venti, herbicidal effect grade",[17],3 (Herbicidal ratio of 40% or higher and lower than 70%)
same,"K: Lolium multiflorum Lam., herbicidal effect grade",[18],4 (Herbicidal ratio of 70% or higher and lower than 90%)
CON=C(C)CC1CC(O)=C(c2c(C)cc(C(=O)OC)cc2C)C1=O (stereo not drawn) [6-023],"G: Setaria viridis, herbicidal effect grade",[1],5 (Herbicidal ratio of 90% or more (almost completely withered))
same,"P: Stellaria media, herbicidal effect grade",[19],0 (Herbicidal ratio of 5% or lower (almost no effect))
same,"F: Digitaria ciliaris, herbicidal effect grade",[3]; [20],1 (Herbicidal ratio of 5% or higher and lower than 20%)
same,"I: Avena fatua, herbicidal effect grade",[4]; [20],0 (Herbicidal ratio of 5% or lower (almost no effect))
same,"g: rapeseed, effect on crop grade",[5],3 (Herbicidal ratio of 40% or higher and lower than 70%)
same,"Q: Galium spurium, herbicidal effect grade",[6],0 (Herbicidal ratio of 5% or lower (almost no effect))
same,"N: Amaranthus retroflexus, herbicidal effect grade",[7]; [20],0 (Herbicidal ratio of 5% or lower (almost no effect))
same,"M: Abutilon theophrasti, herbicidal effect grade",[8],0 (Herbicidal ratio of 5% or lower (almost no effect))
same,"J: Alopecurus myosuroides, herbicidal effect grade",[9]; [20],4 (Herbicidal ratio of 70% or higher and lower than 90%)
same,"F: Digitaria ciliaris, herbicidal effect grade",[10],5 (Herbicidal ratio of 90% or more (almost completely withered))
same,"Herbicidal effect grade, A: Echinochloa oryzacola Vasing.",[11],0 (Herbicidal ratio of 5% or lower (almost no effect))
same,"herbicidal effect on H (Echinochloa crus-galli var. crus-galli), grade 0-5",[12],5 (Herbicidal ratio of 90% or more (almost completely withered))
same,"G: Setaria viridis, herbicidal effect grade",[13],3 (Herbicidal ratio of 40% or higher and lower than 70%)
same,"herbicidal effect on D (Leptochloa chinensis), grade 0-5",[14],5 (Herbicidal ratio of 90% or more (almost completely withered))
same,"R: Veronica persica, herbicidal effect grade",[15]; [20],0 (Herbicidal ratio of 5% or lower (almost no effect))
same,"b: directly sowed rice plant, effect on crop grade",[16],5 (Herbicidal ratio of 90% or more (almost completely withered))
same,"L: Apera spica-venti, herbicidal effect grade",[17],4 (Herbicidal ratio of 70% or higher and lower than 90%)
same,"K: Lolium multiflorum Lam., herbicidal effect grade",[18],5 (Herbicidal ratio of 90% or more (almost completely withered))
CON=C(C)CC1CC(O)=C(c2c(C)cc(-c3ccc(OC)cc3)cc2C)C1=O (mixture of isomers) [6-017],"G: Setaria viridis, herbicidal effect grade",[1],5 (Herbicidal ratio of 90% or more (almost completely withered))
same,"O: Chenopodium album, herbicidal effect grade",[2],4 (Herbicidal ratio of 70% or higher and lower than 90%)
same,"P: Stellaria media, herbicidal effect grade",[19],1 (Herbicidal ratio of 5% or higher and lower than 20%)
same,"F: Digitaria ciliaris, herbicidal effect grade",[3]; [20],5 (Herbicidal ratio of 90% or more (almost completely withered))
same,"I: Avena fatua, herbicidal effect grade",[4]; [20],0 (Herbicidal ratio of 5% or lower (almost no effect))
same,"g: rapeseed, effect on crop grade",[5],0 (Herbicidal ratio of 5% or lower (almost no effect))
same,"Q: Galium spurium, herbicidal effect grade",[6],0 (Herbicidal ratio of 5% or lower (almost no effect))
same,"N: Amaranthus retroflexus, herbicidal effect grade",[7]; [20],1 (Herbicidal ratio of 5% or higher and lower than 20%)
same,"M: Abutilon theophrasti, herbicidal effect grade",[8],0 (Herbicidal ratio of 5% or lower (almost no effect))
same,"F: Digitaria ciliaris, herbicidal effect grade",[10],5 (Herbicidal ratio of 90% or more (almost completely withered))
same,"Herbicidal effect grade, A: Echinochloa oryzacola Vasing.",[11],5 (Herbicidal ratio of 90% or more (almost completely withered))
same,"herbicidal effect on H (Echinochloa crus-galli var. crus-galli), grade 0-5",[12],5 (Herbicidal ratio of 90% or more (almost completely withered))
same,"G: Setaria viridis, herbicidal effect grade",[13],5 (Herbicidal ratio of 90% or more (almost completely withered))
same,"herbicidal effect on D (Leptochloa chinensis), grade 0-5",[14],5 (Herbicidal ratio of 90% or more (almost completely withered))
same,"R: Veronica persica, herbicidal effect grade",[15]; [20],0 (Herbicidal ratio of 5% or lower (almost no effect))
same,"b: directly sowed rice plant, effect on crop grade",[16],5 (Herbicidal ratio of 90% or more (almost completely withered))
same,"L: Apera spica-venti, herbicidal effect grade",[17],5 (Herbicidal ratio of 90% or more (almost completely withered))
same,"K: Lolium multiflorum Lam., herbicidal effect grade",[18],5 (Herbicidal ratio of 90% or more (almost completely withered))
CON=C(C)CC1CC(OC(=O)N2CCCCC2)=C(c2c(C)cc(C)cc2C)C1=O (stereo not drawn) [1-151],"G: Setaria viridis, herbicidal effect (criteria 0-5)",[1],5 (Herbicidal ratio of 90% or more (almost completely withered))
same,"O: Chenopodium album, herbicidal effect (criteria 0-5)",[2],0 (Herbicidal ratio of 5% or lower (almost no effect))
same,"P: Stellaria media, herbicidal effect (criteria 0-5)",[19],0 (Herbicidal ratio of 5% or lower (almost no effect))
same,"F: Digitaria ciliaris, herbicidal effect grade",[3]; 320 g/ha,5 (Herbicidal ratio of 90% or more (almost completely withered))
same,"I: Avena fatua, herbicidal effect grade",[4]; 320 g/ha,3 (Herbicidal ratio of 40% or higher and lower than 70%)
same,"g: rapeseed, effect grade on crop",[5]; 320 g/ha,0 (Herbicidal ratio of 5% or lower (almost no effect))
same,"Q: Galium spurium, herbicidal effect (criteria 0-5)",[6],0 (Herbicidal ratio of 5% or lower (almost no effect))
same,"N: Amaranthus retroflexus, herbicidal effect grade",[7]; 320 g/ha,0 (Herbicidal ratio of 5% or lower (almost no effect))
same,"M: Abutilon theophrasti, herbicidal effect (criteria 0-5)",[8],3 (Herbicidal ratio of 40% or higher and lower than 70%)
same,"J: Alopecurus myosuroides, herbicidal effect grade",[9]; 320 g/ha,5 (Herbicidal ratio of 90% or more (almost completely withered))
same,"F: Digitaria ciliaris, herbicidal effect (criteria 0-5)",[10],5 (Herbicidal ratio of 90% or more (almost completely withered))
same,"Herbicidal effect grade, A: Echinochloa oryzacola Vasing.",[11],5 (Herbicidal ratio of 90% or more (almost completely withered))
same,"herbicidal effect on H (Echinochloa crus-galli var. crus-galli), grade 0-5",[12],4 (Herbicidal ratio of 70% or higher and lower than 90%)
same,"herbicidal effect on D (Leptochloa chinensis), grade 0-5",[14],4 (Herbicidal ratio of 70% or higher and lower than 90%)
same,"R: Veronica persica, herbicidal effect grade",[15]; 320 g/ha,0 (Herbicidal ratio of 5% or lower (almost no effect))
same,"b: directly sowed rice plant, effect on crop (criteria 0-5)",[16],4 (Herbicidal ratio of 70% or higher and lower than 90%)
same,"L: Apera spica-venti, herbicidal effect (criteria 0-5)",[17],5 (Herbicidal ratio of 90% or more (almost completely withered))
same,"K: Lolium multiflorum Lam., herbicidal effect (criteria 0-5)",[18],5 (Herbicidal ratio of 90% or more (almost completely withered))
